Data: article PMC9354932, “Heme Interferes With Complement Factor I-Dependent Regulation by Enhancing Alternative Pathway Activation” (Frontiers in Immunology, 2022)

Biological target: T1, factor I (FI) (Homo sapiens, UniProt P05156)
T1 construct: gene CFI; purified human complement factor I, commercial (CompTech); mature heavy and light chains of one precursor; immobilised on CM5 chip for SPR
T1 sequence (P05156 19-335): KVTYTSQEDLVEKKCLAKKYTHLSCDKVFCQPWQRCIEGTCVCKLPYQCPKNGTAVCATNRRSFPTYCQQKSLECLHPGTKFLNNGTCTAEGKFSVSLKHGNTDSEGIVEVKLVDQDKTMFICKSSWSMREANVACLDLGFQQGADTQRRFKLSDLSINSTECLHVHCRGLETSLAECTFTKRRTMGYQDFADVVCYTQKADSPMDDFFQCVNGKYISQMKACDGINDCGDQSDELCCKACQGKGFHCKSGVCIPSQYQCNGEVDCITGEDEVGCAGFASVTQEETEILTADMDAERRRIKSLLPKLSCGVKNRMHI
T1 sequence (P05156 340-583): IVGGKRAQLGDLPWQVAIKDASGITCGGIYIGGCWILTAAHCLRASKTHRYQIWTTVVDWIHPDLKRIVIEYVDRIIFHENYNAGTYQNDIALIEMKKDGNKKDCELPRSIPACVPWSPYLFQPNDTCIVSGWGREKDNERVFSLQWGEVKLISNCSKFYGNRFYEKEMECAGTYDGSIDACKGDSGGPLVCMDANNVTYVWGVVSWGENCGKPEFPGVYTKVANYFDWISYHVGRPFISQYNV
Assay: SPR (Biacore […]), factor I immobilised on CM5 chip
Format: binding
Details: read-out: KD (apparent)

- Kd: 11.5 µM
Structure (SMILES): C=CC1=C(C)C2=Cc3c(C=C)c(C)c4[n]3[Fe]([Cl])[n]3c(c(C)c(CCC(=O)O)c3=CC3=NC(=C4)C(C)=C3CCC(=O)O)=CC1=N2 [heme]
